These are literature values, as cited in patent US7060463B2 (priority 2001, dated 2006).

Usually IC50 stands for the concentration needed to halve the response being measured.

Molecules are shown by their SMILES.

In this data set the target is GST-Flag-rhARLBD (Macaca mulatta, UniProt Q6QT55).
GST-Flag-rhARLBD, sequence (Q6QT55 601-895): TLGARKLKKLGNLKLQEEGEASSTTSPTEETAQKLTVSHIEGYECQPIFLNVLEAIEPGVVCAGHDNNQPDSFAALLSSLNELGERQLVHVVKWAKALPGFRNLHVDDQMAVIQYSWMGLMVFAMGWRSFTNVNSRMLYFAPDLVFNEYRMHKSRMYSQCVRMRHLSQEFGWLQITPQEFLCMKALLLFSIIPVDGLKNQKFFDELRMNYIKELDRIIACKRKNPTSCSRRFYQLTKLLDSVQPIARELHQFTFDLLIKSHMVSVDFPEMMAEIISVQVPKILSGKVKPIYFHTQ

As to `C[C@]1(O)CC[C@H]2[C@@H]3CCC4=CC(=O)CCC4=C3C=C[C@@]21C` [R1881, 17b-hydroxy-17-methylestra-4,9,11-trien-3-one], the IC50 was roughly 1 nM.
